Test results reported in ChEMBL document CHEMBL5137082, “Discovery of a Novel Vascular Disrupting Agent Inhibiting Tubulin Polymerization and HDACs with Potent Antitumor Effects” (J Med Chem, 2022).
Active and inactive are the calls of the source. No cut-off for these calls is given here.

Columns and labels:
[1] = Toxicity in ICR mouse allografted with mouse H22 cells assessed as pathological changes in kidney at 20 mg/kg, iv administered qd measured after 21 days by H and E staining based analysis; type: organism-based; settings: in vivo, 504 h, time 21 day
[2] = test system: H22; test: Antitumor activity against mouse H22 cells allografted in ICR mouse assessed as reduction in tumor volume growth rate at 20 mg/kg, iv administered qd for 21 days measured after 12 days; type: functional, organism-based; settings: time 21.0 day
[3] = Toxicity in ICR mouse allografted with mouse H22 cells assessed as change in heart rate at 20 mg/kg, iv administered qd measured after 21 days; type: organism-based; settings: in vivo, 504 h, time 21 day
[4] = test system: HepG2; test: Induction of apoptosis in human HepG2 cells assessed as upregulation of Bax protein expression measured after 24 hrs by Western blot analysis; type: functional, cell-based; settings: dose 7.5-30 nM, DDE = dose-dependent effect
[5] = test system: PC-3; test: Induction of apoptosis in human PC-3 cells assessed as mitochondrial membrane potential loss by measuring early apoptotic cells at 15 nM incubated for 48 hrs by JC1 staining based flow cytometry analysis (reference value: 6.50 +/- 0.17%); type: functional
[6] = target: Tubulin (Homo sapiens) (UniProt P68371+Q9H4B7+P0DPH7+P68366+Q13509+Q71U36+P04350+Q3ZCM7+P07437+P68363+Q9BQE3+Q6PEY2+Q13885+Q9BVA1+Q9BUF5); test: Disruption of microtubule network in human HepG2 cells at 7.5 to 30 nM measured after 2 hrs by DAPI staining based immunofluorescence microscopic assay; type: cell-based; settings: dose 7.5-30 nM
[7] = test system: HUVEC; test: Antimigratory activity against HUVEC cells assessed as suppression of migration measured after 24 hrs by Wound healing assay; type: functional, cell-based; settings: Homo sapiens, dose 7.5-30 nM, DDE = dose-dependent effect
[8] = test system: HepG2; test: Induction of morphological changes in human HepG2 cells assessed as chromatin aggregation at 7.5 to 30 nM after 48 hrs by Hoechst 33258 staining based fluorescence microscopic analysis; type: functional, cell-based; settings: dose 7.5-30 nM
[9] = test system: HepG2; test: Induction of cell cycle arrest in human HepG2 cells assessed as accumulation G2 phase at 7.5 nM incubated for 48 hrs by propidium iodide staining based flow cytometry analysis (reference value: 23.55 +/- 0.29%); type: functional
[10] = test system: H22; test: Antiproliferative activity against mouse H22 cells assessed as inhibition of cell growth measured after 72 hrs by MTT assay; type: functional, cell-based; settings: H22, 72 h
[11] = test system: HepG2; test: Antiproliferative activity against human HepG2 cells assessed as inhibition of cell growth measured after 72 hrs by MTT assay; type: functional, cell-based; settings: HepG2, 72 h
[12] = test system: HepG2; test: Induction of apoptosis in human HepG2 cells assessed as necrotic cells at 30 nM incubated for 48 hrs by Annexin-V/PI-staining based flow cytometry (reference value: 1.43 +/- 0.26%); type: functional
[13] = test system: HepG2; test: Induction of cell cycle arrest in human HepG2 cells assessed as accumulation G1 phase at 15 nM incubated for 48 hrs by propidium iodide staining based flow cytometry analysis (reference value: 59.32 +/- 0.77%); type: functional
[14] = test system: H22; test: Antivascular activity against mouse H22 cells allografted in ICR mouse assessed as reduction in tumor microvessel density by measuring CD31-positive cells at 20 mg/kg, iv administered qd measured after 21 days by immunohistochemistry analysis; type: functional, organism-based; settings: time 21.0 day
[15] = test system: HepG2; test: Induction of apoptosis in human HepG2 cells assessed as viable cells at 15 nM incubated for 48 hrs by Annexin-V/PI-staining based flow cytometry (reference value: 91.44 +/- 0.74%); type: functional; settings: read-out: Activity
[16] = Metabolic stability in mouse liver microsomes assessed as metabolic bioavailability at 1 uM in presence of NADPH measured up to 60 mins by LC-MS/MS analysis; type: ADME, Microsome
[17] = test system: HepG2; test: Induction of apoptosis in human HepG2 cells assessed as early apoptotic cells at 15 nM incubated for 48 hrs by Annexin-V/PI-staining based flow cytometry (reference value: 4.61 +/- 0.46%); type: functional
[18] = Toxicity in ICR mouse allografted with mouse H22 cells assessed as pathological changes in heart at 20 mg/kg, iv administered qd measured after 21 days by H and E staining based analysis; type: organism-based; settings: in vivo, 504 h, time 21 day
[19] = test system: MCF7; test: Antiproliferative activity against human MCF7 cells assessed as inhibition of cell growth measured after 72 hrs by MTT assay; type: functional, cell-based; settings: MCF7, 72 h
[20] = test system: PC-3; test: Induction of apoptosis in human PC-3 cells assessed as mitochondrial membrane potential loss by measuring increase in green fluorescence at 7.5 nM incubated for 48 hrs by JC1 staining based flow cytometry analysis (reference value: 6.50 +/- 0.17%); type: functional
[21] = target: Histone deacetylase 1 (Homo sapiens, UniProt Q13547); test: Inhibition of HDAC1 in human HepG2 cells assessed as increase in level of acetyl histone H3substrate incubated for 24 hrs by chemiluminescence based Western blotting analysis; type: cell-based; settings: dose 0.03-0.3 µM
[22] = test system: HepG2; test: Induction of cell cycle arrest in human HepG2 cells assessed as accumulation S phase at 7.5 nM incubated for 48 hrs by propidium iodide staining based flow cytometry analysis (reference value: 17.14 +/- 0.34%); type: functional
[23] = Cardiotoxicity in ICR mouse allografted with mouse H22 cells assessed as effect on T wave at 20 mg/kg, iv administered qd measured after 21 days by ECG analysis; type: toxicity, organism-based; settings: in vivo, 504 h, time 21 day
[24] = test system: HUVEC; test: Antivascular activity against HUVEC cells assessed as inhibition of capillary-like tubule formation at 30 nM measured after 6 hrs by inverted microscopy; type: functional, cell-based; settings: Homo sapiens
[25] = test system: MDA-MB-231; test: Inhibition of cell invasion in human MDA-MB-231 cells measured after 48 hrs by crystal violet staining based transwell assay; type: functional; settings: dose 7.5-30 nM, DDE = dose-dependent effect
[26] = test system: HepG2; test: Induction of cell cycle arrest in human HepG2 cells assessed as accumulation S phase at 15 nM incubated for 48 hrs by propidium iodide staining based flow cytometry analysis (reference value: 17.14 +/- 0.34%); type: functional
[27] = test system: HepG2; test: Induction of apoptosis in human HepG2 cells assessed as late apoptotic cells at 30 nM incubated for 48 hrs by Annexin-V/PI-staining based flow cytometry (reference value: 2.53 +/- 0.34%); type: functional
[28] = test system: HepG2; test: Induction of apoptosis in human HepG2 cells assessed as late apoptotic cells at 15 nM incubated for 48 hrs by Annexin-V/PI-staining based flow cytometry (reference value: 2.53 +/- 0.34%); type: functional

Chain of Histone deacetylase 1 (Q13547 whole entry): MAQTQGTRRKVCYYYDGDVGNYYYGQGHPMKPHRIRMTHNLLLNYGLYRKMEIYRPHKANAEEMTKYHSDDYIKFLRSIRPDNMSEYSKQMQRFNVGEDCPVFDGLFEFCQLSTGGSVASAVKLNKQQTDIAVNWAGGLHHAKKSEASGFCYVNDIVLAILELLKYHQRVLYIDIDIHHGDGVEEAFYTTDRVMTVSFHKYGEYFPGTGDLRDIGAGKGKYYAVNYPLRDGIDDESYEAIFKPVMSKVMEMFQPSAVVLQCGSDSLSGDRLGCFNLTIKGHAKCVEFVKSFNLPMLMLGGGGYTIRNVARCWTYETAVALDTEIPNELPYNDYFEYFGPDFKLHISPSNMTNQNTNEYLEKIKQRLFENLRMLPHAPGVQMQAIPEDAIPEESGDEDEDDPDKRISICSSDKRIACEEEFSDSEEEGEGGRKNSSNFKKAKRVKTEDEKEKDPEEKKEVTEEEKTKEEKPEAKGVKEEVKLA

In the case of COc1ccc(CNC(=O)c2cc(F)ccc2N2CCOCC2)cc1/C=C/C(=O)NO, the Activity [1] is reported as “Non-Toxic”, the Activity [2] is reported as “Active” and the Activity [3] is reported as “Non-Toxic”. For the same compound, the Activity [4] was “Dde”, the Activity [5] was 35.4% and the Activity [6] was “Active”. The Activity [7] was “Dde”, the Activity [8] was “Active” and the Activity [9] was 24.42%. It also gave an IC50 [10] of 26 nM, an IC50 [11] of 29 nM and an Activity [12] of 2.85%. For the same compound, the Activity [13] was 49.96%, the Activity [14] was “Active” and the viability at 0.015 µM [15] was 65.7%. The Fh at 1 h, 1 µM [16] was 51.6%, the Activity [17] was 26.84% and the Activity [18] was “Non-Toxic”. For the same compound, the IC50 [19] was 27 nM, the Activity [20] was 23.22% and the inhibition [21] was “Active”. For the same compound, the Activity [22] was 20.81%, the Activity [23] was “Non-Toxic” and the Activity [24] was “Active”. For the same compound, the inhibition [25] was “Dde”, the Activity [26] was 23.06% and the Activity [27] was 15.68%. The Activity [28] was 6.36%.
